# In patent publication US20040142994A1, “Azolylcarbynol derivatives of aryl (or heteroaryl) for the treatment of respiratory diseases” (priority 2001, published 2004):
# Assays:
# [1] = Observation for possible sedative effects in the treated guinea-pigs; format: in vivo, guinea-pig; conditions: ip
# Text: To do this, the antitussive activity has been studied in guinea-pigs, simultaneously studying the possible sedative effects at the doses used in this study. The method used was the one described by Boura [Boura A L A, Green A F, Saunders I A (1970), An antitussive test using guinea-pigs. Br. J. Pharmacol., 39, 225P], con modificaciones más recientes [Adcock J J, Schneider C, Smith T W (1988), Effects of codeine, morphine a novel opioid pentapeptide BW443C, on cough, nociception and ventilation in the unanaesthetized guinea-pig. Br. J. Pharmacol., 93:93-100; Clay T P, Thompson M A (1985), Irritant induced cough as a model of intrapulmonary airway reactivity. Lung, 163:183-191; Forsberg K, Karlsson J-A, Theodorsson E; Lundberg J M; Persson C G A (1988), Cough and bronchoconstriction mediated by capsaicin-sensitive sensory neurons in the guinea-pig. Pulm Pharmacol, 1: 33-39; Gallico L, Borghi A, Dalla Rosa C, Ceserani R, Tognella S (1994), Moguisteine: a novel peripheral non-narcotic antitussive drug. […]
# The guinea-pigs (250-400 g) were deprived of water and food 30 minutes before any intervention. […] During this period, the animals were observed continuously, the number of coughs was counted and the baseline value was taken as control. […] The antitussive activity was assessed for each guinea-pig as the reduction in the number of coughs compared to their previously recorded values. […]
# [2] = tested on: cough induced by citric acid aerosol; assay: Antitussive activity against cough induced by citric acid aerosol in guinea-pig; format: in vivo; conditions: ip; for N° of Coughs ± SEM: 30 min before citric acid aerosol (7.5% p/v), 12.5 min observation, N=10; for SD-50: antitussive activity, citric acid aerosol
# Text: To do this, the antitussive activity has been studied in guinea-pigs, simultaneously studying the possible sedative effects at the doses used in this study. The method used was the one described by Boura [Boura A L A, Green A F, Saunders I A (1970), An antitussive test using guinea-pigs. Br. J. Pharmacol., 39, 225P], con modificaciones más recientes [Adcock J J, Schneider C, Smith T W (1988), Effects of codeine, morphine a novel opioid pentapeptide BW443C, on cough, nociception and ventilation in the unanaesthetized guinea-pig. Br. J. Pharmacol., 93:93-100; Clay T P, Thompson M A (1985), Irritant induced cough as a model of intrapulmonary airway reactivity. Lung, 163:183-191; Forsberg K, Karlsson J-A, Theodorsson E; Lundberg J M; Persson C G A (1988), Cough and bronchoconstriction mediated by capsaicin-sensitive sensory neurons in the guinea-pig. Pulm Pharmacol, 1: 33-39; Gallico L, Borghi A, Dalla Rosa C, Ceserani R, Tognella S (1994), Moguisteine: a novel peripheral non-narcotic antitussive drug. Br. J. Pharmacol,112:795-800].
# The guinea-pigs (250-400 g) were deprived of water and food 30 minutes before any intervention. The guinea-pigs, neither ligated nor anaesthetised, were individually placed in a perspex box (20×12×14 cm.) and left for an accommodation period of 15 minutes. After this period, the animals were exposed to an aerosol of an aqueous solution of citric acid (7.5% p/v, 0.39M). This concentration of citric acid is the minimum concentration capable of producing the maximum number of coughs during the observation period (Forsberg et al., 1988). The aerosol was generated for 2.5 minutes using an ultrasound nebulizer (De Vilbiss, Ultraneb 99; mean particle size 0.9 μm, with a flow of 0.5 ml/min.). The observation period with the animals exposed to the nebulized citric acid in the box was 12.5 minutes (2.5 minutes of aerosol production, followed by an additional 10 minutes). During this period, the animals were observed continuously, the number of coughs was counted and the baseline value was taken as control. Only the guinea-pigs that coughed between 15 and 30 times during the observation period were selected for the study. On the day after the selection the animals were randomly treated with the vehicle or with the study product thirty minutes before being exposed again to the citric acid aerosol. The antitussive activity was assessed for each guinea-pig as the reduction in the number of coughs compared to their previously recorded values. On the other hand, the animals were observed from the time of administration of the product until the end of the experiment for possible sedative effects.
compound,measurement,setting,value
"CN(C)CCOC(c1ccccc1)c1ccnn1C.O=C(O)CC(O)(CC(=O)O)C(=O)O (racemic) [Product, (±)-5-{α-[2-(dimethylamine)ethoxy]benzyl}-1-methyl-1H pirazole citrate]",sedative effect,"[1]; 10, 40 and 100 mg/kg",does not produce any sedative effect
same,sedative effect,[1]; maximum dose used 100 mg/kg,no sedative effect
same,N° of Coughs ± SEM,[2]; 10 mg/kg,8.7 ± 0.7
same,N° of Coughs ± SEM,[2]; 40 mg/kg,4.3 ± 0.5
same,N° of Coughs ± SEM,[2]; 100 mg/kg,2.8 ± 0.4
same,antitussive activity (in words),"[2]; 10, 40 and 100 mg/kg",good antitussive activity which is perfectly dose-related
same,inhibition at 10 mg/kg,"[2]; Cavia porcellus, 10 mg/kg, inhibition of coughs",37%
same,inhibition at 40 mg/kg,"[2]; Cavia porcellus, 40 mg/kg, inhibition of coughs",71%
same,inhibition at 100 mg/kg,"[2]; Cavia porcellus, 100 mg/kg, inhibition of coughs",80%
same,SD-50,[2],"17.6 mg/kg, ip"
same,SD-50,[2]; listed as (±)-5-{α-[2(dimethylamine) ethoxy]benzyl}-1-methyl-1H-pirazole citrate,17.6 mg/kg
